Measured values: BindingDB's records for doi:10.7270/Q2HT2MQ5 (Nmmlsc, 2009)

Biological target: Cell division control protein 42 homolog (Homo sapiens, UniProt P60953)
Assay: blockade of fluorescent GTP uptake by Cdc42 wt – biochemical, bead-based multiplex flow cytometry, oxadiazole series, SAR follow-up (AID 2037)
Details: inactive by the depositor's call

Cell division control protein 42 homolog, sequence (P60953 whole entry): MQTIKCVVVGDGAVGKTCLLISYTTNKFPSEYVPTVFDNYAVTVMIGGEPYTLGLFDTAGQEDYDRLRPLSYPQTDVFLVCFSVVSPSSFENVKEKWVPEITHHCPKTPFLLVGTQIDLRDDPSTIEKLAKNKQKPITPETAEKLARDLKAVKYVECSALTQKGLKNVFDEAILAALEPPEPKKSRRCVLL

Ki: 100 nM
SMILES: COc1ccc(-c2noc(CCC(=O)N3CCN(c4ccc(OC)cc4)CC3)n2)cc1 [3-[3-(4-methoxyphenyl)-1,2,4-oxadiazol-5-yl]-1-[4-(4-methoxyphenyl)piperazin-1-yl]propan-1-one]
